Assay results: patent US9464064B2, “HCV helicase inhibitors and methods of use thereof” (University of Kansas, priority 2011, dated 2016)

Columns and labels:
[1] = biological target: T1, E. coli SSB-Cy5-dT15 complex (Escherichia coli, UniProt P0AGE0); experiment: Escherichia coli SSB Cy5-dT15 binding assay (fluorescence polarization); conditions: for IC50: disruption of Cy5-dT15-SSB complex, read-out: Cy5-dT15-SSB Binding IC50; for inhibition at 100 µM: read-out: SSB % Displaced @ 100 μM; for EC50: read-out: SSB EC50
T1 construct: purchased Promega
Procedure, shortened: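 Fluorescence polarization with 5 nM Cy5-dT15 and 20 nM E. coli SSB in 25 mM MOPS pH 7.5, 1.25 mM MgCl2, BSA, Tween 20, DTT. Screening at 1% DMSO; IC50 runs at 5% DMSO. Excitation 635 nm, parallel and perpendicular emission at 667 nm.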

[2] = tested on: Huh-7.5 cells; experiment: Cell viability assay ([…]-GLO); type: cell-based, human; conditions: 10 μM
Procedure, shortened: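 Huh-7.5 cells exposed to compound for 72 hours, washed, then lysed in a 1:1 mix of growth medium and […]-GLO reagent. After 30 minutes at 23° C., luminescence was read for 1 second as a measure of viability.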

[3] = biological target: T2, NS3h_2a(JFH1) (Hepatitis C virus genotype 2a, UniProt Q99IB8); experiment: MBHA, DNA substrate, genotype 2a helicase; type: biochemical, hepatitis C virus genotype 2a(JFH1); conditions: genotype 2a (JFH1); read-out: Target Potency MBHA (IC50 avg., μM) 2a (JFH1) (converted)
T2 construct: truncated C-terminally His-tagged NS3 proteins lacking the N-terminal protease, called NS3h; His-tag (C); made in house
Procedure, shortened: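 Inhibition of DNA unwinding by C-terminally His-tagged recombinant NS3 helicase domain (no protease) from HCV genotype 2a JFH1 strain, measured by molecular beacon-based helicase assay (MBHA).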

T2 sequence (Q99IB8 1196-1661): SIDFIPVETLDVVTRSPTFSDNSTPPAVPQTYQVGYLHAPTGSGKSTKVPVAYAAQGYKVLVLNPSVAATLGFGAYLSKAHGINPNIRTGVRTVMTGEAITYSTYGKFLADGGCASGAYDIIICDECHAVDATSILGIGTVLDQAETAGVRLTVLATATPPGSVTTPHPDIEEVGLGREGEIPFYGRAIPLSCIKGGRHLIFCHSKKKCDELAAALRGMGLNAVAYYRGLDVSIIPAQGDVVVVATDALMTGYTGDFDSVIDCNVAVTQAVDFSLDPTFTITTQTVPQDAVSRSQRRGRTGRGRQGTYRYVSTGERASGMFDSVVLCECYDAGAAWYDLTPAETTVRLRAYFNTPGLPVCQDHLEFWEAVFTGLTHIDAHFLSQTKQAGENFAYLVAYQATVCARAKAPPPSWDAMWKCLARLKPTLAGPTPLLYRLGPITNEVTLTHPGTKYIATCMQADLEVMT
T1 sequence (P0AGE0 2-178, one chain of several): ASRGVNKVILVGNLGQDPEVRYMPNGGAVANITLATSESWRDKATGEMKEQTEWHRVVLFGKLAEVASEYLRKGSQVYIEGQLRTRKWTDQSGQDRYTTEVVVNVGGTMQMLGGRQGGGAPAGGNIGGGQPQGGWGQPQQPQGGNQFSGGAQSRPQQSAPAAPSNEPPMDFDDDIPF

SMILES | IC50 [1] | inhibition at 100 µM [1] | EC50 [1] | Cell Viability (% @ 10 μM) [2] | IC50 [3]
Cc1ccc2nc(-c3ccc4nc(-c5ccc(NC(=O)Nc6ccccc6)cc5)sc4c3)sc2c1S(=O)(=O)O.N [Compound 52] | 6 ± 1 µM | 95% | 6 µM | 108 ± 4% | 6 µM
Cc1ccc2nc(-c3ccc4nc(-c5ccc(NCc6ccccc6)cc5)sc4c3)sc2c1S(=O)(=O)O [Compound 53] | 5 ± 1 µM | 102% | 5 µM | 109 ± 8% | 13.5 µM
Cc1ccc2nc(-c3ccc4nc(-c5ccc(NC(=O)Nc6ccc(Cl)cc6)cc5)sc4c3)sc2c1S(=O)(=O)O [Compound 54] | 5 ± 1 µM | 94% | 5 µM | 98 ± 1% | 4.4 µM
COc1ccc(NC(=O)Nc2ccc(-c3nc4ccc(-c5nc6ccc(C)c(S(=O)(=O)O)c6s5)cc4s3)cc2)cc1 [Compound 55] | 4 ± 1 µM | 95% | 4 µM | 99 ± 9% | 6.4 µM
